According to ChEMBL document CHEMBL3228040 (J Med Chem, 1979):
The source made the active and inactive calls. The calls are words filed in the database; no cut-off is given here.

Columns and labels:
Rhesus monkey [1] = assay: Effect on physical dependence capacity in morphine-dependent rhesus monkey at 20 mg/kg by single-dose suppression test; type: functional, organism-based; design: dose 20 mg/kg; conditions: Macaca mulatta
Opioid receptor = Opioid receptor (Rattus norvegicus, UniProt P33533+P34975+P33535); assay: Displacement of radiolabeled dihydromorphine from opioid receptor in rat brain homogenates; type: tissue-based
Mus musculus [2] = assay: Analgesic activity in sc dosed mouse by hot plate assay; type: functional
Rhesus monkey [3] = assay: Effect on physical dependence capacity in morphine-dependent rhesus monkey assessed as partial suppression of abstinence signs at 20 to 40 mg/kg by single-dose suppression test; type: functional, organism-based; conditions: Macaca mulatta
Mus musculus [4] = species on record: Mus musculus; assay: Analgesic activity in mouse by Nilsen assay; type: functional
Rhesus monkey [5] = assay: Effect on physical dependence capacity in morphine-dependent rhesus monkey at 1.2 mg/kg by single-dose suppression test; type: functional, organism-based; design: dose 1.2 mg/kg; conditions: Macaca mulatta
Mus musculus [6] = species on record: Mus musculus; assay: (§1) Analgesic activity in mouse by tail flick assay; type: functional
Mus musculus [7] = species on record: Mus musculus; assay: Analgesic activity in mouse assessed as inhibition of PPQ-induced writhing; type: functional
Mus musculus [8] = species on record: Mus musculus; assay: as §1; type: functional, organism-based
Rhesus monkey [9] = assay: Effect on physical dependence capacity in morphine-dependent rhesus monkey up to 16 mg/kg by single-dose suppression test; type: functional, organism-based; design: dose 16 mg/kg; conditions: Macaca mulatta

Structure (SMILES)	EC50 (Opioid receptor) [nM]	ED50 (Mus musculus [2]) [mg/kg]	further results
CCOC(=O)C1(c2ccccc2)CCN(CCC#N)CC1	8000	100	Activity (Rhesus monkey [1]): inactive
CCC(=O)C1(c2cccc(O)c2)CCN(CCC#N)CC1	1500		Activity (Rhesus monkey [3]): Active; ED50 (Mus musculus [4]): > 50 mg/kg
CC[C@H]1C2Cc3ccc(O)cc3[C@@]1(C)CCN2C (mixture of isomers)	15	1.3	Activity (Rhesus monkey [5]): Active; ED50 (Mus musculus [6]): 6.4 mg/kg; ED50 (Mus musculus [7]): 0.2 mg/kg
CC[C@H]1C2Cc3ccc(O)cc3[C@@]1(C)CCN2CCC#N (mixture of isomers)	4	0.21	Activity (Rhesus monkey [5]): Active; ED50 (Mus musculus [6]): 0.8 mg/kg; inhibition (Mus musculus [8]): inactive; ED50 (Mus musculus [7]): 0.09 mg/kg
CC[C@H]1C2Cc3ccc(O)cc3[C@@]1(C)CCN2CCC(N)=O (mixture of isomers)	9	19.3	Activity (Mus musculus [6]): inactive; inhibition (Mus musculus [8]): inactive; inhibition (Mus musculus [7]): inactive; Activity (Rhesus monkey [9]): inactive
CC1C2Cc3ccc(O)cc3C1(C)CCN2C (racemic)	9	1.18	
CCC(=O)C1(c2cccc(O)c2)CCN(C)CC1 [KETOBEMIDONE]	2	0.8	
CCOC(=O)C1(c2ccccc2)CCN(C)CC1 [MEPERIDINE]		4.7	
CN1CC[C@]23c4c5ccc(O)c4O[C@H]2[C@@H](O)C=C[C@H]3[C@H]1C5 [MORPHINE]		1.2	
